# Biological target: T1, Dpo1 (Saccharolobus solfataricus, UniProt P26811)
# T1 construct: made in house
# T1 sequence (P26811 1-882): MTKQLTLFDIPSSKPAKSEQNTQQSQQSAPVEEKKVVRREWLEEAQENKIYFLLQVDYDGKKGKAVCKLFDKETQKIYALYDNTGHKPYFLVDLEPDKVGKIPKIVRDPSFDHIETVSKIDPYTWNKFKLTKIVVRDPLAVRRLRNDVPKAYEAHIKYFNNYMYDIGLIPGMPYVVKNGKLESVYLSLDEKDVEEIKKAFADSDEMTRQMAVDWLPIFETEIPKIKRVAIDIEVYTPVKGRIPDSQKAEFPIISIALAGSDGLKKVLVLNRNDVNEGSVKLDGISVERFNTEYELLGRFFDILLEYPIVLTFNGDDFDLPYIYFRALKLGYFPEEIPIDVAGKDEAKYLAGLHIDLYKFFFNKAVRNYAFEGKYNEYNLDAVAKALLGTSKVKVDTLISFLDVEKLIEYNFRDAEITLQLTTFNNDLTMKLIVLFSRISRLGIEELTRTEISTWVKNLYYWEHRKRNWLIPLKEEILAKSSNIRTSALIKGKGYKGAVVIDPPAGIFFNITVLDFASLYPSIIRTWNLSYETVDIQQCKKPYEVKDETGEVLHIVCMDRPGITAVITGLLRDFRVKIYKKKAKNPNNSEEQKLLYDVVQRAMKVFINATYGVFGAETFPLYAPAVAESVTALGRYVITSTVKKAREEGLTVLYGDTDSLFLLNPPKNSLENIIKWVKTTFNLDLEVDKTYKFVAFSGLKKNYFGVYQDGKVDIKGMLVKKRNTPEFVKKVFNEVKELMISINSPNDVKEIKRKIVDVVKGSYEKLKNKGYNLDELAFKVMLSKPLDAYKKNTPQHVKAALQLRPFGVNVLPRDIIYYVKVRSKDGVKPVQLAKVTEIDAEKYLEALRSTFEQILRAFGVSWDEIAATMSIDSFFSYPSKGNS
# Assay: Fluorescence-based polymerase assay, other pol families
# Type: biochemical, Sulfolobus solfataricus
# Conditions: 10 μM; 25 nM Dpo1 (B-family)
compound,measurement,value
"Cl.[H]/N=C(\N)NN=Cc1cn(C(=O)c2cccc3ccccc23)c2ccc(Cl)cc12 [IAG-10, (E)-2-((1-(1-naphthoyl)-5-chloro-1H-indol-3-y1)methylene)hydrazine-1-carboximidamide hydrochloride]",polymerase activity relative to DMSO control,only hpol κ activity was inhibited
